# Reference: patent publication US12410124B2 (priority 2019, dated 2025)
# Read-outs that look alike come from different tables or passages of the source.
# Tests used:
# [1] = test system: fetal rat midbrain neurons; test: Survival rate of primary midbrain neurons induced by MPP+ (CCK-8); type: cell-based; conditions: Rattus norvegicus, Neuron, read-out: Survival rate (%)
# Description: The main pathological feature of Parkinson's disease (PD) lies in the degeneration and loss of dopaminergic neuron in the substantia nigra-striatum of the midbrain. 1-Methyl-4-phenylpyridinium (MPP+) has a high affinity to dopamine carriers and a selective toxicity on dopaminergic neurons. Thus, MPP+ is one of the most ideal classic neurotoxins for establishing PD cell models. The primary cell culture of fetal rat midbrain is often used to establish PD cell models in recent years. Although it is more cumbersome and has higher technical requirements than cell line culture, it is closer to the pathological characteristics of PD. Thus, a PD cell model is established using neurons from the primary cell culture of fetal rat midbrain under MPP+ induction, to evaluate the protective effect of target compounds on the model neurons.
# The midbrain was separated from a fetal rat of a 15-day-pregnant SD rat and cut into pieces, then subjected to trypsin digestion, pipetting, screen filtration, and resuspension steps, and inoculated in a 24-well cell culture plate pre-coated with poly-D-lysine. 12 hours after culture, cytarabine was added to inhibit the growth of glial cells. On the 5th day of neuron growth, the toxin MPP+ can be added to make a PD cell model. When detecting the activity of a target compound, the target compound was pre-incubated with midbrain neurons for 3 h, then MPP+ was added, and after 48 h co-incubation the neuronal viability was detected by CCK-8 method and the neuronal survival rate was calculated to evaluate the inhibitory activity of the target compound on the midbrain neuronal PD damage. The experiment included blank control group, MPP+ model group, positive control group (caffeic acid phenethyl ester, CAPE), prototype control group (styryl sulfone compounds 3B, 3C, 3D, and 3G), and target compound group (prepared according to Examples 1-22 in the invention).
# [2] = test system: substantia nigra p-α-s; test: Substantia nigra p-α-s protein expression in MPTP Parkinson's disease model mouse (immunofluorescence); type: in vivo; conditions: percentage of mean intensity of blank control group, gavage 21 days after MPTP modeling
# Experimental: Neurotoxins can be used to establish PD animal models. Currently, 1-methyl-4-phenyl-1,2,3,6-tetrahydropyridine (MPTP) is the sole synthetic toxin which is recognized to induce PD symptoms in human and non-human primates and in mice. Using MPTP subacute modeling method, C57BL/6J male mice were intraperitoneally injected with MPTP 30 mg/kg, once a day for 5 consecutive days. The experiment animals were divided into blank control group, MPTP model group, and compound treatment group. For the […] compound treatment group, the compound was administrated by gavage for 21 consecutive days after the completion of modeling; for the MPTP model group, the normal saline was administrated by gavage for 21 consecutive days after the completion of modeling; and for the blank control group, the normal saline was first intraperitoneally injected for 5 days, and then administrated by gavage for 21 days.
# Alpha-synuclein is an “unfolded protein” in its natural state. It exists in a monomeric form, and participates in the physiological functions such as the release of neurotransmitters, the establishment of synaptic junctions, and the regulation of synaptic plasticity. Under pathological conditions, more than 90% of alpha-synuclein is phosphorylated at serine of position 129 and converted into phosphorylated alpha-synuclein (p-α-s), thereby forming Lewy bodies. The formation of Lewy bodies is one of the main pathological manifestations and pathological mechanisms for Parkinson's disease, and plays an important role in the formation and development of PD. The detection of the p-α-s expression in the midbrain and substantia nigra of PD model mice can evaluate the neuroprotective activity of the compound.
# Half of experiment mice in each group were taken to separate the midbrain after perfusion and fixation. The tissue was trimmed, and the substantia nigra-striatum area was taken to prepare paraffin sections. The p-α-s immunofluorescence staining was performed in the brain sections of mice in each group. […] The experiment included blank control group, MPTP model group, positive control group (caffeic acid phenethyl ester, CAPE), prototype control group (styryl sulfone compounds 3B, 3C, 3D, and 3G, whose structures are shown as above), and target compound group.
# [3] = biological target: acetylcholinesterase (AchE) (Homo sapiens, UniProt P22303); test: biochemical
# Experimental: The modified Ellman method was used to determine the inhibitory activity on acetylcholinesterase. The principle lies in that acetylthiocholine iodide is decomposed under the action of acetylcholinesterase (AchE) to generate thiocholine. The thiocholine is quickly reacted with DTNB as the colour-developing agent to generate a yellow substance with light absorption at 405 nm. To a 96-well microplate, 50 μl of enzyme reaction buffer, 125 μl of DTNB (3 mM), 25 μl of test sample or positive control drug, and 25 μl of AchE (0.2 U/ml) were successively added. After incubation at room temperature for 5 min, 25 μl of ATCI (15 mM) was added. After incubation at room temperature for 8 min, the absorbance value was determined at 405 nm with a microplate reader. A blank control group without enzyme (25 μl PBS instead of the sample to be tested) was also established.
# [4] = test system: primary glial cells; test: Inhibition of the NO release of primary glial cells induced by LPS; type: cell-based, rat; conditions: Rattus norvegicus, Glial cell, read-out: NO inhibition (%)
# Description: Lipopolysaccharide (LPS) is a main component of the cell wall of Gram-negative bacteria. It is a potent inflammatory factor that can directly activate gliocytes, and the activated gliocytes secrete a large amount of inflammation mediators such as tumor necrosis factor, interleukin, and nitric oxide, thus causing inflammatory reactions and oxidative stress reactions and eventually leading to neuronal denaturation and death. In recent years, the targeted injection of LPS into rat substantia nigra or striatum to induce neuroinflammation can successfully establish PD models, which can simulate most of the clinical manifestations and pathological features of PD, and are used for the study on the neuroinflammation mechanism associated with PD. LPS-induced primary glial cell PD inflammation model is suitable for the preliminary anti-neuroinflammation screening for neuroprotective agents. LPS is used to directly activate primary glial cells to simulate the pathogenesis mechanism of neuroinflammation, and the inhibitory activity of the target compounds on the inflammatory response of primary glial cells can be investigated.
# The materials were taken from the brain tissue of fetal rat, for primary glial cell culture. At 7 to 10 days of the culture, LPS was added for the activation of nitric oxide (NO) release in glial cells. When a target compound was added, the reduction value for NO content in the cell culture medium was measured, to evaluate the anti-neuroinflammation activity of the compound. The experiment included blank control group, LPS model group, positive control group (caffeic acid phenethyl ester, CAPE), prototype control group (styryl sulfone compounds 3B, 3C, 3D, and 3G, the structures of which compounds are shown as above), and target compound group.
# [5] = 5 μM, 3 h pre-incubation, 48 h with MPP+
# [6] = 10 μM, 3 h pre-incubation, 48 h with MPP+
# [7] = 20 μM, 3 h pre-incubation, 48 h with MPP+
# [8] = acetylcholinesterase, modified Ellman method, read-out: IC50
# acetylcholinesterase (AchE), sequence (P22303 32-614, species assumed): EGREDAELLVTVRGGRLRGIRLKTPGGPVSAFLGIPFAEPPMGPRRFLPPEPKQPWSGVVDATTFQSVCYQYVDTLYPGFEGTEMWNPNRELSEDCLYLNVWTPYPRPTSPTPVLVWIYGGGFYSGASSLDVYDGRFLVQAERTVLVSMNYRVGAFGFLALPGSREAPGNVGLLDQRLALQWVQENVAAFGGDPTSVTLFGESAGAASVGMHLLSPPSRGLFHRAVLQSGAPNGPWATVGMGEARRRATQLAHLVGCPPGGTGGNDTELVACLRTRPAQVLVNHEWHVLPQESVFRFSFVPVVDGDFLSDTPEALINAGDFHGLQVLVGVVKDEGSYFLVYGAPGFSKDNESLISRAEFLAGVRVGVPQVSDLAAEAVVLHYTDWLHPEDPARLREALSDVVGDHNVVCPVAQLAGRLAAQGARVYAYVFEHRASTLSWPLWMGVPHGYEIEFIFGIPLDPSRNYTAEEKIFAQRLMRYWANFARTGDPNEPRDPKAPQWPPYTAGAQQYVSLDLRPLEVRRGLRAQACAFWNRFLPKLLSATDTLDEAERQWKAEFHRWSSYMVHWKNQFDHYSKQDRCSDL
SMILES,viability at 5 µM ([1]; 48 h) [%],viability at 10 µM ([1]; 48 h) [%],viability at 20 µM ([1]; 48 h) [%],Expression (Immunofluorescence intensity %) [2] [%],IC50 [3] [µM],inhibition at 2 µM [4] [%],inhibition at 5 µM [4] [%],inhibition at 10 µM [4] [%],inhibition at 20 µM [4] [%],"viability at 5 µM [1, 5] [%]","viability at 10 µM [1, 6] [%]","viability at 20 µM [1, 7] [%]","IC50 [3, 8] [µM]",inhibition at 5 µM ([4]; 5 μM) [%],inhibition at 10 µM ([4]; 10 μM) [%],inhibition at 20 µM ([4]; 20 μM) [%],inhibition at 2 µM ([4]; 2 μM) [%]
"CCN(C)C(=O)Oc1ccc(/C=C/S(=O)(=O)CC(c2ccc(-c3ccc(OC)c(OC)c3)cc2)[N+](=O)[O-])cc1OC(=O)N(C)CC (stereo not drawn) [Compound M1-1, (E)-4-{2-[2-(3′,4′-dimethoxy-[1,1′-biphenyl]-4-yl)-2-nitroethylsulfonyl]ethenyl}-1,2-phenylenebis(N-ethyl-N-methylcarbamate)]",82.4 ± 2.54,89.9 ± 3.67,95.1 ± 1.94,95.64 ± 9.25,6.6 ± 0.71,38.3 ± 3.42,52.9 ± 5.36,82.7 ± 2.47,,,,,,,,,
"COc1ccc(CC(=O)Oc2ccc(/C(C)=C/S(=O)(=O)/C=C/c3ccc(OC(=O)N(C)C)c(O[Si](C)(C)CCl)c3)cc2)cc1 [Compound P1-7, 4-{(E)-1-[(E)-3-(chloromethyldimethylsiloxy)-4-(N,N-dimethylcarbamoyloxy)styrylsulfonyl]prop-1-en-2-yl}phenyl-2-(4-methoxyphenyl) acetate]",79.2 ± 3.72,86.6 ± 2.93,91.2 ± 2.08,61.28 ± 5.36,21.4 ± 2.07,,21.3 ± 4.43,41.2 ± 1.95,71 ± 3.67,,,,,,,,
"COCCN(C)C(=O)Oc1cc(/C=C/S(=O)(=O)CCc2cccc(-c3ccc(C)o3)c2)ccc1OC(C)=O [Compound J1-4, (E)-2-[N-(2-methoxyethyl)-N-methylcarbamoyloxy]-4-{2-[3-(5-methylfur-2-yl)phenylethylsulfonyl]ethenyl}phenyl acetate]",75.2 ± 3.29,84.8 ± 2.27,90.3 ± 2.6,116.95 ± 8.06,8.54 ± 1.65,24.8 ± 5.02,40.9 ± 3.94,69.7 ± 5.85,,,,,,,,,
"CC(C)(C)c1ccc(CS(=O)(=O)/C=C/c2ccc(O)c(O)c2)cc1 [Compound 3G, (E)-4-{2-[(4-t-butylphenyl)mesyl]ethenyl}benzene-1,2-diol, reference compound]",,,,203.66 ± 8.37,,,,,,51.4 ± 3.54,68.4 ± 1.89,71.2 ± 3.75,> 100,41.2 ± 3.01,59.6 ± 2.44,85.8 ± 3.88,
CN(C)c1ccc(CC(=O)Oc2cc(/C=C/S(=O)(=O)C(Br)c3ccc(Cc4ccc(N(C)C)cc4)cc3)ccc2OC(=O)N2CCCC2C(F)(F)F)cc1 (stereo not drawn) [Compound M1-5],,,,67.90 ± 3.29,,,,,,68.2 ± 4.31,78.2 ± 3.76,86.9 ± 3.08,31.3 ± 4.63,21.2 ± 3.12,45.6 ± 4.28,66.7 ± 4.02,
"C=CCOc1ccc(C/C=C/S(=O)(=O)/C=C/c2ccc(OC(C)=O)c(OC(=O)N(CC=C)CC=C)c2)cc1 [Compound K1-4, 4-{(E)-2-[(E)-3-(4-allyloxyphenyl)prop-1-en-1-yl]sulfonylethenyl}-2-(N,N-diallylcarbamoyloxy)phenyl acetate]",,,,106.95 ± 9.27,,,,,,76.7 ± 3.17,87.1 ± 2.56,93.2 ± 1.81,16.9 ± 1.22,53.5 ± 5.52,77.4 ± 5.09,,30.2 ± 4.01
"COc1cc(/C=C/S(=O)(=O)Cc2cc(OC)c(OC)c(OC)c2)ccc1OC(=O)N(c1ccccc1)c1ccccc1 [Compound K3-3, (E)-2-methoxy-4-{2-[(3,4,5-trimethoxyphenyl)mesyl]ethenyl}-phenyl-N,N-diphenylcarbamate]",,,,180.11 ± 13.51,,,,,,62.5 ± 3.58,75.5 ± 2.37,88.5 ± 1.73,38.3 ± 2.79,17.6 ± 3.24,40.6 ± 3.11,72.5 ± 6.08,
"CC[Si](CC)(Oc1ccc(C(Cl)S(=O)(=O)/C=C/c2ccc(OC(=O)N3CC(C)OC(C)C3)c(OC(=O)c3cccc(Cl)c3OC)c2)cc1)c1ccccc1 (stereo not drawn) [Compound R1-5, (E)-4-{2-[4-(diethylphenylsiloxy)phenylchloromesyl]ethenyl}-2-(3-chloro-2-methoxybenzoyloxy)phenyl-2,6-dimethylmorpholine-4-carboxylate]",,,,125.28 ± 9.35,,,,,,72.3 ± 2.94,82.5 ± 2.83,90.2 ± 1.76,27.5 ± 3.49,23.8 ± 4.32,48.5 ± 3.68,73.6 ± 3.92,
"O=C(NC(=O)C(F)(F)F)Oc1ccc(/C=C/S(=O)(=O)C(F)(F)c2ccc(Oc3ccccn3)cc2)cc1OC(=O)C(F)(F)C(F)(F)F [Compound L1-4, (E)-5-{2-[(4-[pyridin-2-yl-oxy]phenyl)difluoromethylsulfonyl]ethenyl}-2-[N-(2,2,2-trifluoroacetyl)carbamoyloxy]phenyl-2,2,3,3,3-pentafluoropropionate]",,,,58.37 ± 6.11,,,,,,67.5 ± 3.52,75.4 ± 2.59,86.2 ± 1.86,9.48 ± 1.34,50.9 ± 3.72,72.3 ± 4.8,,26.7 ± 6.93
